Results as given in PMC11864979, “First-in-class ultralong-target-residence-time p38α inhibitors as a mitosis-targeted therapy for colorectal cancer” (Nature Cancer, 2025).
Where “and” joins values, the source holds several entries; their conditions need not be identical. Equal entries are not always repeated.

Columns and labels:
HCT 116 = assay: cell viability in human CRC cell line HCT 116; type: cell-based
Procedure: To generate KAP^2D cells, KAP organoids were isolated from Matrigel, fragmented by mechanical dissociation and plated without any extracellular matrix on common cell culture dishes. Phoenix-Eco packaging cells (CRL-3214), HCT-15 (CCL-225), HCT 116 (CCL-247), COLO 205 (CCL-222), LS 174T (CL-188), RKO (CRL-2577) and HT-29 (HTB-38) were obtained from the American Type Culture Collection. The cells were cultured at 37 °C and 7% CO2 with RPMI (KAP^2D cells) or DMEM (other cell lines), supplemented with 10% FBS and penicillin–streptomycin. KAP^2D cells were authenticated using PCR (Kras locus and Trp53 locus). Phoenix-Eco packaging cells and HCT-15, HCT 116, COLO 205, LS 174T, RKO and HT-29 cells were authenticated by the provider using short tandem repeat profiling. No commonly misidentified cell lines were used. Mycoplasma contamination was excluded by a PCR-based analysis.
For in vitro treatment studies, organoids were mechanically dissociated and digested using TrypLE supplemented with 100 µg ml^−1 DNaseI and 10.5 µM Y-27632 dihydrochloride (Invitrogen) at 37 °C. A total of 1,000–2,000 single cells were plated per well in white 96-well plates (Greiner) in culture medium containing 10% GFR Matrigel or Cultrex BME. The treatment with doxycycline (5 µg ml^−1), pharmacological inhibitors or corresponding volumes of DMSO was started 24 h after plating. Doxycycline was obtained from Sigma-Aldrich. […] Cell viability was measured by means of CellTiter-Glo 3D or CellTiter-Glo 2.0 reagent (Promega) according to the manufacturers’ instructions and the Infinite M Plex reader (Tecan, i-control version 3.9.1 software). Results were normalized to vehicle (DMSO) or to shNC. For cell-doubling assays, the cell number was quantified at the corresponding time points using Guava EasyCyte flow cytometer (Luminex, CytoSoft v5.2 software).

LS 174T = assay: cell viability in human CRC cell line LS 174T; type: cell-based
Procedure: The cells were cultured at 37 °C and 7% CO2 with RPMI (KAP^2D cells) or DMEM (other cell lines), supplemented with 10% FBS and penicillin–streptomycin. […] No commonly misidentified cell lines were used. Mycoplasma contamination was excluded by a PCR-based analysis.

KAP^2D cells [1] = assay: quantification of viable KAP^2D cells over time (cell-doubling assay); type: cell-based, mouse; settings: Fig. 4i
Procedure: The treatment with doxycycline (5 µg ml^−1), pharmacological inhibitors or corresponding volumes of DMSO was started 24 h after plating. […] Cell viability was measured by means of CellTiter-Glo 3D or CellTiter-Glo 2.0 reagent (Promega) according to the manufacturers’ instructions and the Infinite M Plex reader (Tecan, i-control version 3.9.1 software). Results were normalized to vehicle (DMSO) or to shNC. For cell-doubling assays, the cell number was quantified at the corresponding time points using Guava EasyCyte flow cytometer (Luminex, CytoSoft v5.2 software).

KAP^2D cells [2] = assay: EdU incorporation in KAP^2D cells; type: cell-based, mouse; settings: replicates, experiment and repetition
Procedure: Immunofluorescence staining on cells and organoids was performed on glass coverslips or tissue culture chambers (Sarstedt). Organoids were plated in medium containing 10% Matrigel or Cultrex BME. The cultures were fixed with 4% paraformaldehyde and stained with specific antibodies and DAPI (Vector Labs). All used antibodies and dilutions are listed in the Nature Portfolio Reporting Summary. For analyzing DNA synthesis, the Molecular Probes Click-iT EdU Alexa Fluor 555 kit was used 24 h after EdU incorporation with DAPI counterstaining. SA-β-Gal staining of cells was performed in cell culture dishes (cells) or tissue culture chambers (organoids) after fixation with 0.5% glutaraldehyde as described above. Human cultures were incubated with X-Gal solution at pH 6.0 for ~4 h.

KAP^2D cells [3] = assay: annexin V apoptosis analysis in KAP^2D cells; type: cell-based, mouse; settings: for Annexin V+ cells: Fig. 5a
Procedure: Apoptosis was analyzed with the FITC annexin V apoptosis detection kit (Biolegend). Both measurements were performed with FACS Canto II (BD) and physical parameters were used to exclude cell debris and cell doublets.

KAP liver metastasis = assay: survival of wild-type mice with KAP liver metastasis; type: in vivo, mouse
Procedure: Subcutaneous injection, splenic seeding or cecum injection of organoids was performed in 8–10-week-old C57BL/6 N/Crl, Rag2^−/− (B6.Cg-Rag2^tm1.1Cgn/J), or CB17 Scid beige (CB17.Cg-Prkdc^scidLyst^bg-J/Crl) mice, obtained from Charles River. The organoids were dissociated into single cells, washed with PBS and injected in a 1:1 mixture of PBS and Matrigel. For murine organoids, 1 × 10^5 cells were injected into the left and right flanks or the spleen capsule and 2 × 10^6 cells were injected into the cecum wall. For human organoids, 4 × 10^5 cells were injected into the flanks of CB17 Scid beige mice. For splenic seeding and cecum injection, mice were anaesthetized using ketamine (100 mg kg^−1, intraperitoneally) and xylazin (10 mg/kg, intraperitoneally) in NaCl and a small laparotomy below the thorax was performed.
No mice were excluded during treatment studies.

CNC(=O)c1ccc2c(c1)C(=O)c1ccc(Nc3ccc(F)c(NC(=O)C4CC4)c3)cc1CC2 [Compound 2015]
HCT 116 Cell viability (%) (HCT 116; 0.3704 µM, 4 d): 48.15% and 38.21% and 37.69% and 25.63% and 24.67% and 24.34%
HCT 116 Cell viability (%) (HCT 116; 1.1111 µM, 4 d): 30.94% and 32.21% and 17.75% and 19.27% and 17.57%
IC50 (HCT 116; Homo sapiens, 96 h, HCT 116, 4 d of treatment): 223 nM
viability at 0.0137 µM (HCT 116; Homo sapiens, HCT-116, 96 h, 0.0137 µM, 4 d, read-out: HCT 116 Cell viability (%)): 90.6%
viability at 0.0412 µM (HCT 116; Homo sapiens, HCT-116, 96 h, 0.0412 µM, 4 d, read-out: HCT 116 Cell viability (%)): 90.7%
viability at 0.1235 µM (HCT 116; Homo sapiens, HCT-116, 96 h, 0.1235 µM, 4 d, read-out: HCT 116 Cell viability (%)): 90.7%
viability at 1.1111 µM (HCT 116; Homo sapiens, HCT-116, 96 h, 1.1111 µM, 4 d): 28.5%
LS 174T Cell viability (%) (LS 174T; 0.0137 µM, 4 d): 96.94% and 94.17% and 83.74% and 81.63% and 85.36%
LS 174T Cell viability (%) (LS 174T; 0.0412 µM, 4 d): 73.38% and 70.71% and 85.74% and 87.33% and 89.84%
LS 174T Cell viability (%) (LS 174T; 0.1235 µM, 4 d): 69.97% and 51.36% and 67.79% and 77.35% and 76.20% and 73.53%
LS 174T Cell viability (%) (LS 174T; 0.3704 µM, 4 d): 24.32% and 25.80% and 26.81% and 26.78% and 26.48%
LS 174T Cell viability (%) (LS 174T; 1.1111 µM, 4 d): 31.73% and 32.17% and 36.58% and 37.87% and 35.55%
LS 174T Cell viability (%) (LS 174T; 3.3333 µM, 4 d): 32.71% and 33.28% and 34.27% and 33.01% and 33.12%
LS 174T Cell viability (%) (LS 174T; 10.0000 µM, 4 d): 28.71% and 24.62% and 25.79% and 25.85%
viability at 0.0137 µM (LS 174T; Homo sapiens, LS174T, 96 h, 0.0137 µM, 4 d, read-out: LS 174T Cell viability (%)): 92.3%
viability at 0.0412 µM (LS 174T; Homo sapiens, LS174T, 96 h, 0.0412 µM, 4 d, read-out: LS 174T Cell viability (%)): 70.7%
viability at 0.3704 µM (LS 174T; Homo sapiens, LS174T, 96 h, 0.3704 µM, 4 d, read-out: LS 174T Cell viability (%)): 25%
viability at 1.1111 µM (LS 174T; Homo sapiens, LS174T, 96 h, 1.1111 µM, 4 d, read-out: LS 174T Cell viability (%)): 31.5%
viability at 3.3333 µM (LS 174T; Homo sapiens, LS174T, 96 h, 3.3333 µM, 4 d, read-out: LS 174T Cell viability (%)): 33.1%
viability at 10 µM (LS 174T; Homo sapiens, LS174T, 96 h, 10.0000 µM, 4 d, read-out: LS 174T Cell viability (%)): 25.1%
IC50 (LS 174T; Homo sapiens, LS174T, 96 h, LS 174T, 4 d of treatment): 132 nM
Number of cells (KAP^2D cells [1]; 0 h of treatment): 41307.05 and 44263.95 and 43595.63 and 48502.24 and 40389.64
Number of cells (KAP^2D cells [1]; 12 h of treatment): 56623.49 and 67064.09 and 57491.63 and 61648.82 and 68603.21 and 63323.28
Number of cells (KAP^2D cells [1]; 24 h of treatment): 66705.14 and 74668.97 and 68938.05 and 94046.77 and 77517.08 and 74107.42
Number of cells (KAP^2D cells [1]; 36 h of treatment): 95730.63 and 106064.51 and 93579.45 and 106339.60 and 110499.20 and 87144.95
Number of cells (KAP^2D cells [1]; 48 h of treatment): 89649.37 and 121264.28 and 95171.59 and 108694.60 and 121883.40 and 116976.50
Number of cells (KAP^2D cells [1]; 60 h of treatment): 136203.08 and 127468.86 and 129997.76 and 163066.30 and 164108.30 and 135189.10
EdU+ cells (KAP^2D cells [2]; Fig. 4j): 50.19% and 55.77% and 45.40% and 44.63% and 45.42% and 38.28% and 36.62% and 49.78%
EdU+ cells (KAP^2D cells [2]; Fig. 5b): 7.76% and 6.30% and 5.41% and 9.24% and 8.18% and 6.48% and 4.44% and 6.67%
Annexin V+ cells (KAP^2D cells [3]; 1 d of treatment): 23.30% and 25.40% and 24.30% and 22.30% and 24.90% and 20.90%
Annexin V+ cells (KAP^2D cells [3]; 2 d of treatment): 41.00% and 47.90% and 34.70% and 29.60% and 31.10% and 30.20%
Annexin V+ cells (KAP^2D cells [3]; 3 d of treatment): 53.10% and 40.00% and 40.60% and 42.30% and 39.50% and 37.30%
Annexin V+ cells (KAP^2D cells [3]; 4 d of treatment): 66.80% and 62.60% and 62.90% and 52.60% and 53.50% and 56.70%
annexin V positivity (in words) (KAP^2D cells [3]; KAP^2D, after 3–4 days of treatment): strongly increased annexin V positivity
survival / therapeutic efficacy in KAP liver metastasis (in words) (KAP liver metastasis; 20 mg kg^−1 daily, start 5 weeks after organoid inoculation): significantly increased the overall survival
Survival (KAP liver metastasis; single animals, 1 = event, 0 = censored, Fig. 6e): 41 d of treatment and 44 d of treatment and 45 d of treatment and 47 d of treatment and ≥ 50 d of treatment and 34 d of treatment
